Measurements from patent US20200390755A1, “COMPOUND FOR TREATING NERVOUS SYSTEM DISEASES AND USE THEREOF” (SHAANXI MICOT TECHNOLOGY CO., LTD., priority 2018, published 2020).

How the values were obtained:
Type in all cases: in vivo, mouse
N171-82Q HD mice [1] = assay: DARPP32 protein level in striatum by Western blotting, HD mice; conditions: 5 mg/kg/d until 25 weeks, WT Vehicle = 100, n = 3
Description: (§1) 7-week-old N171-82Q HD male mice were paired with female B6C3F1/J hybrid mice to obtain newborn mice. From 21 days of age, male mice were housed in separate cages. 0.5 cm of mouse tail tissue was removed to extract DNA to determine the genotype of the mouse, such that N171-82Q HD mice and WT mice needed for the experiment were obtained. The mice were randomly divided into WT Vehicle group (normal mice), WT test compound group (administration group of normal mice, 5 mg/kg/d, n=10), HD Vehicle group (blank group of HD mice, n=15), HD test compound group (administration groups 1-5 of HD mice, 5 mg/kg/d, n=10). The test compound was suspended in 1% CMC-Na solution and administered by intragastric administration until the end of the study. The weights of the mice were measured every week. Behavioral tests were performed at 12 weeks, 18 weeks, and 24 weeks of age to investigate motor function. At 20 weeks, 3 samples of tissue from each group were used for western blotting and immunohistochemistry. At 24 weeks, MRI scans were performed. At the end of the study, the effect of the test compound on the mortality of mice was evaluated.
Dopamine and cAMP-regulated phosphoprotein (DARPP-32), with a molecular weight of 32 kDa, is a basic component of dopamine signaling cascade. A pathological feature of HD is the massive loss of MSNs which can express high level of DARPP32, in the striatum. Therefore, DARPP32 can be used as a marker of nerve damage and nerve dysfunction in the HD model. After the behavioral evaluation of the mice in each experimental group was completed and the administration continued until 25 weeks, 3 mice were taken from each group to separate hippocampal tissue, striatum, and neurocortex tissue. The total protein in the striatum tissue was extracted, and the protein level of DARPP 32 was detected by Western blotting experiment.
The striatum tissue block was lysed in 100 μL of lysis buffer (RIPA buffer 10 mL, protease inhibitor 100 μL, phosphatase inhibitor 100 μL) on ice for 30 min, and then pulverized with an ultrasonic cell pulverizer, and then centrifuged at 14000 rpm for 20 min at 4° C. The supernatant was transferred to a new 1.5 mL centrifuge tube. The protein was extracted, and the protein level of DARPP 32 was detected by Western blotting.

N171-82Q HD mice [2] = assay: High-altitude balance beam (5 mm) experiment 2, HD mice; conditions: 5 mg/kg/d intragastric
Description: as §1
(§2) The software Sigmaplot 13.0 was used for statistical analysis of the data, and the data of each group was expressed as mean standard error (x±SEM). Behavioral test results were analyzed using two-way (genotype and processing factor) ANOVA and post-ho tests, the comparison and statistics of weight data were performed using two-way (genotype and age) ANOVA of repeated measures, and mortality was counted using Kaplan-Meier method. Other measurement data were analyzed by one-way ANOVA. P<0.05 was considered statistically significant.
(§3) The motor function of mice was evaluated by the rotarod experiment and three types of balance beam experiments. The shorter the time for mouse to cross the balance beam, and the longer the time to drop, the stronger the coordination ability of the mouse.
A square balance beam with a length of 100 cm and a width of 11 mm was placed at a 45-degree angle to the horizontal ground. A black box (12×12×12 cm) was placed at the end of the balance beam, and the starting platform was illuminated by bright lights. Spacers were placed under the balance beam to provide cushioning in case that the animal falls off the beam. One hour before the test, the mice were trained to cross the beam three times at one-eighth, one-quarter, and full-length distances from the black box, respectively. If the mice stopped walking during training, they were gently pressed with long forceps on the tail to encourage movement. After the training experiment, the mice rested for at least one hour in an undisturbed environment. In the experiment, the maximum time for each mouse to cross the balance beam was set to 60 seconds. If the time for crossing the beams was greater than 60 seconds, it was recorded as 60 seconds.
a square balance beam with a length of 80 cm and a width of 5 mm was place at a height of about 50 cm from the ground. The following steps are the same as the slope balance beam experiment.

N171-82Q HD mice [3] = assay: Rotarod experiment, HD mice; conditions: 5 mg/kg/d intragastric
Description: as §1, §2, §3
The maximum time for mice fatigue rotarod was set to 5 minutes, and the acceleration was set from 4 rpm up to 40 rpm. Time record was began when the mouse was placed on the rotarod. The time the mouse remained on the rod, i.e., drop latent period, was recorded to indicate its motor coordination ability. One day before the rotarod experiment, each mouse was trained for 5 minutes, and then rested in the cage after the training session. On the day of the experiment, the mice were placed on the rotating rotarod for three rounds of tests, with a 30-minute rest between tests before entering the next round of test. The result was the average of the three tests.

Row | Structure (SMILES) | Relative intensity of DARPP32 protein (N171-82Q HD mice [1]) | Time for crossing the beams, high-altitude balance beam (5 mm) (N171-82Q HD mice [2]; 12 w) | Time for crossing the beams, high-altitude balance beam (5 mm) (N171-82Q HD mice [2]; 18 w) | Time for crossing the beams, high-altitude balance beam (5 mm) (N171-82Q HD mice [2]; 24 w) | Time to drop (drop latent period), rotarod (N171-82Q HD mice [3]; 12 w) | Time to drop (drop latent period), rotarod (N171-82Q HD mice [3]; 18 w) | Time to drop (drop latent period), rotarod (N171-82Q HD mice [3]; 24 w)
1 | COc1ccc2c(=O)cc(-c3ccc(N4CCCCC4)cc3)oc2c1OC [Example 2, 7,8-dimethoxy-2-(4-(piperidin-1-yl)phenyl)-4H-chromen-4-one] | 96.113 ± 2.681 | 12.13 ± 4.97 s | 13.96 ± 2.74 s | 14.32 ± 5.44 s | 98.89 ± 21.35 s | 107.40 ± 27.48 s | 89.67 ± 30.76 s
2 | CC1(C)CCN(c2ccc(-c3cc(=O)c4ccc(O)c(O)c4o3)cc2)CC1 [Example 4, 2-(4-(4,4-dimethylpiperidin-1-yl)phenyl)-7,8-dihydroxy-4H-chromen-4-one] | 97.348 ± 3.438 | 13.22 ± 4.59 s | 13.88 ± 5.63 s | 15.92 ± 7.87 s | 95.09 ± 27.23 s | 99.86 ± 30.27 s | 79.15 ± 34.17 s
3 | O=c1cc(-c2ccc(N3CCCCC3)cc2)oc2c(O)c(O)ccc12 [Example 1, 7,8-dihydroxy-2-(4-(piperidin-1-yl)phenyl)-4H-chromen-4-one] | 96.971 ± 3.607 | 13.09 ± 4.39 s | 12.09 ± 3.27 s | 13.91 ± 3.33 s | 95.90 ± 23.32 s | 101.03 ± 32.39 s | 83.55 ± 29.07 s
4 | CN(C)C1CCN(c2ccc(-c3cc(=O)c4ccc(O)c(O)c4o3)cc2)CC1 [Example 3, 2-(4-(4-(dimethylamino)piperidin-1-yl)phenyl)-7,8-dihydroxy-4H-chromen-4-one] | 97.032 ± 3.887 | 12.20 ± 4.45 s | 12.99 ± 4.72 s | 13.11 ± 5.30 s | 94.15 ± 30.15 s | 103.40 ± 37.86 s | 90.06 ± 33.45 s
5 | CC1CC(C)CN(c2ccc(-c3cc(=O)c4ccc(O)c(O)c4o3)cc2)C1 (centres unmarked) [Example 5, 2-(4-(3,5-dimethylpiperidin-1-yl)phenyl)-7,8-dihydroxy-4H-chromen-4-one] | 96.797 ± 3.018 | 14.25 ± 5.34 s | 14.98 ± 5.05 s | 16.80 ± 5.97 s | 98.19 ± 29.17 s | 101.03 ± 32.39 s | 81.71 ± 30.15 s
